Experimental data from ChEMBL document CHEMBL2375244 (J Med Chem, 2013).

Biological target: CDK2/Cyclin A2 (Homo sapiens, UniProt P24941)
Test: Inhibition of human CDK2/Cyclin A2 using PKTPKKAKKL as substrate by fluorescence assay
Type: protein-complex assay

IC50: 20 nM
SMILES: Nc1nc(Nc2ccc(S(N)(=O)=O)cc2)sc1C(=O)c1ccccc1[N+](=O)[O-]
